Patent US12570666B2, “Furoindazole derivatives” (Bayer Aktiengesellschaft, priority 2019, dated 2026)

target: T1, human GPR84 receptor (Homo sapiens, UniProt Q9NQS5); experiment: cAMP HTRF assay for identification of cellular GPR84 antagonists; assay type: cell-based; details: CHO-K1 cells stably expressing human GPR84; Forskolin + agonist 6-OAU (EC80); average or median values
T1 construct: frozen aliquots prepared by acCELLerate; host or cells: CHO-K1
Outline: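 IC50 came from 4-parameter fits over 20 μM–0.07 nM (11 points, duplicate), normalized between DMSO (0%) and agonist-free (100% inhibition) wells. Readout: cAMP-d2/Eu-cryptate HTRF in hGPR84 CHO-K1 cells given forskolin plus agonist, compound preincubated 30 min at room temperature.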

T1 sequence (Q9NQS5 whole entry): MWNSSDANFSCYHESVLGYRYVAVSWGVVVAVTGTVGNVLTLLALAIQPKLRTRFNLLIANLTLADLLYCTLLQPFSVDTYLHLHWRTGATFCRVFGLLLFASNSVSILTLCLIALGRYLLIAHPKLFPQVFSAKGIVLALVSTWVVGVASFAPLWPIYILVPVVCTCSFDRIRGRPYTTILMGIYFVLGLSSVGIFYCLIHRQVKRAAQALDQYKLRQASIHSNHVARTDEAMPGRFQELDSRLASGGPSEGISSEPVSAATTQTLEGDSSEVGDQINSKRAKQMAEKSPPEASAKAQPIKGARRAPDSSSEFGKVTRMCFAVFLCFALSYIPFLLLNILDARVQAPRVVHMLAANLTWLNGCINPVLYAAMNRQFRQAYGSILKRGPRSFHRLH

| SMILES | IC50 [µM] |
| --- | --- |
| Cc1c(C(=O)NC[C@@H]2CCCO2)oc2c1-c1nn(Cc3ccccn3)cc1CC2 [Example 3-2, 8-methyl-2-(pyridin-2-ylmethyl)-N-[(2S)-tetrahydrofuran-2-ylmethyl]-4,5-dihydro-2H-furo[2,3-g]indazole-7-carboxamide] | 0.11 |
| Cc1c(C(=O)NC[C@@H]2CCCO2)oc2c1-c1nn(Cc3ccccn3)cc1C(C)(C)C2 [Example 148, 4,4,8-trimethyl-2-(pyridin-2-ylmethyl)-N-[(2S)-tetrahydrofuran-2-ylmethyl]-4,5-dihydro-2H-furo[2,3-g]indazole-7-carboxamide] | 0.035 |
| Cc1c(C(=O)NCC2COc3ncccc3O2)oc2c1-c1nn(Cc3ccccn3)cc1CC2 (racemic) [Example 9, N-[(2R/S)-2,3-dihydro[1,4]dioxino[2,3-b]pyridin-2-ylmethyl]-8-methyl-2-(pyridin-2-ylmethyl)-4,5-dihydro-2H-furo[2,3-g]indazole-7-carboxamide] | 0.19 |
| C[C@@H]1Cc2oc(C(=O)NCc3cocn3)c(C(F)(F)F)c2-c2nn(C[C@H]3COCCO3)cc21 (single isomer, unassigned) [Example 261, (4R or 4S)-2-{[(2S)-1,4-dioxan-2-yl]methyl}-4-methyl-N-[(1,3-oxazol-4-yl)methyl]-8-(trifluoromethyl)-4,5-dihydro-2H-furo[2,3-g]indazole-7-carboxamide] | 0.063 |
| CCc1ccc(Cn2cc3c(n2)-c2c(oc(C(=O)NC[C@@H]4COCCO4)c2C)CC3)cn1 [Example 187] | 0.04 |
| Cc1c(C(=O)NC[C@H]2CCCO2)oc2c1-c1nn(C[C@@H]3COc4ncccc4O3)cc1CC2 (racemic) [Example 51, 2-[(2R/S)-2,3-dihydro[1,4]dioxino[2,3-b]pyridin-2-ylmethyl]-8-methyl-N-[(2R/S)-tetrahydrofuran-2-ylmethyl]-4,5-dihydro-2H-furo[2,3-g]indazole-7-carboxamide] | 0.056 |
| Cc1c(C(=O)Nc2ccc(C#N)cc2)oc2c1-c1nn(Cc3ccccn3)cc1CC2 [Example 43, N-(4-cyanophenyl)-8-methyl-2-(pyridin-2-ylmethyl)-4,5-dihydro-2H-furo[2,3-g]indazole-7-carboxamide] | 11.1 |
| Cc1c(C(=O)NC[C@@H]2CCCO2)oc2c1-c1nn(CC3(F)CN(C(=O)OCc4ccccc4)C3)cc1CC2 [Example 155, benzyl 3-fluoro-3-[(8-methyl-7-{[(2S)-tetrahydrofuran-2-ylmethyl]carbamoyl}-4,5-dihydro-2H-furo[2,3-g]indazol-2-yl)methyl]azetidine-1-carboxylate] | 0.013 |
| Cc1ccc(Cn2cc3c(n2)-c2c(oc(C(=O)NC[C@@H]4COCCO4)c2C(F)(F)F)CC3)cn1 [Example 191] | 0.008 |
| Cc1c(C(=O)NCC2CCCO2)oc2c1-c1nn(CC3COc4ncccc4O3)cc1CC2 (single isomer, unassigned) [Example 52-2] | 0.016 |
| Cc1c(C(=O)NC[C@@H]2CCCO2)oc2c1-c1nn(CCNC(=O)OC(C)(C)C)cc1CC2 [Example 139, tert-butyl [2-(8-methyl-7-{[(2S)-tetrahydrofuran-2-ylmethyl]carbamoyl}-4,5-dihydro-2H-furo[2,3-g]indazol-2-yl)ethyl]carbamate] | 0.08 |
| Cc1c(C(=O)NC[C@@H]2COCCO2)oc2c1-c1nn(Cc3cncnc3)cc1CC2 [Example 86, N-[(2R)-1,4-dioxan-2-ylmethyl]-8-methyl-2-(pyrimidin-5-ylmethyl)-4,5-dihydro-2H-furo[2,3-g]indazole-7-carboxamide] | 0.18 |
| O=C(NCc1cnc(C2CC2)cn1)c1oc2c(c1C(F)(F)F)-c1nn(C[C@H]3COCCO3)cc1CC2 [Example 321, N-[(5-cyclopropylpyrazin-2-yl)methyl]-2-{[(2S)-1,4-dioxan-2-yl]methyl}-8-(trifluoromethyl)-4,5-dihydro-2H-furo[2,3-g]indazole-7-carboxamide] | 0.003 |
| Cc1c(C(=O)NC[C@@H]2COCCO2)oc2c1-c1nn(C[C@@H]3CCCO3)cc1CC2 [Example 108, N[(2R)-1,4-dioxan-2-ylmethyl]-8-methyl-2-[(2S)-tetrahydrofuran-2-ylmethyl]-4,5-dihydro-2H-furo[2,3-g]indazole-7-carboxamide] | 0.058 |
| Cc1c(C(=O)NCc2cnoc2C2CC2)oc2c1-c1nn(Cc3ccccn3)cc1CC2 [Example 16, N-[(5-cyclopropyl-1,2-oxazol-4-yl)methyl]-8-methyl-2-(pyridin-2-ylmethyl)-4,5-dihydro-2H-furo[2,3-g]indazole-7-carboxamide] | 11.2 |
| Cc1c(C(=O)NCC2CCC3(COC3)O2)oc2c1-c1nn(Cc3ccccn3)cc1CC2 (racemic) [Example 180] | 0.21 |
| Cc1c(C(=O)NC[C@@H]2COCCO2)oc2c1-c1nn(Cc3ccccn3)cc1C1(CC1)C2 [Example 150] | 0.011 |
| C[C@@H]1Cc2oc(C(=O)NC[C@@H]3COCCO3)c(C(F)(F)F)c2-c2nn(CC3CCN(C(=O)C4(O)CC4)CC3)cc21 (single isomer, unassigned) [Example 295, (4R or 4S)-N-{[(2R)-1,4-dioxan-2-yl]methyl}-2-{[1-(1-hydroxycyclopropane-1-carbonyl)piperidin-4-yl]methyl}-4-methyl-8-(trifluoromethyl)-4,5-dihydro-2H-furo[2,3-g]indazole-7-carboxamide] | 0.008 |
| Cc1c(C(=O)NCc2cc(C3CC3)on2)oc2c1-c1nn(CC3COc4ncccc4O3)cc1CC2 (single isomer, unassigned) [Example 50-1] | 0.11 |
| C[C@@H]1Cc2oc(C(=O)NC[C@@H]3CCCO3)c(C(F)(F)F)c2-c2nn(C[C@H]3COCCO3)cc21 (single isomer, unassigned) [Example 255-1, (4R or 4S)-2-{[(2S)-1,4-dioxan-2-yl]methyl}-4-methyl-N-{[(2S)-oxolan-2-yl]methyl}-8-(trifluoromethyl)-4,5-dihydro-2H-furo[2,3-g]indazole-7-carboxamide] | 0.003 |
| CC1(C)CC[C@H](CNC(=O)c2oc3c(c2C(F)(F)F)-c2nn(C[C@H]4COCCO4)cc2CC3)O1 (single isomer, unassigned) [Example 223-1, N-{[(2R or 2S)-5,5-dimethyloxolan-2-yl]methyl}-2-{[(2S)-1,4-dioxan-2-yl]methyl}-8-(trifluoromethyl)-4,5-dihydro-2H-furo[2,3-g]indazole-7-carboxamide] | 0.012 |
| Cc1cccc(Cn2cc3c(n2)-c2c(oc(C(=O)NCC4CCCO4)c2C)CC3)n1 (racemic) [Example 66, 8-methyl-2-[(6-methylpyridin-2-yl)methyl]-N-[(2R/S)-tetrahydrofuran-2-ylmethyl]-4,5-dihydro-2H-furo[2,3-g]indazole-7-carboxamide] | 0.16 |
| CCN1CCC(Cn2cc3c(n2)-c2c(oc(C(=O)NC[C@@H]4CCCO4)c2C(F)(F)F)CC3)CC1 [Example 311, 2-[(1-ethylpiperidin-4-yl)methyl]-N-{[(2S)-oxolan-2-yl]methyl}-8-(trifluoromethyl)-4,5-dihydro-2H-furo[2,3-g]indazole-7-carboxamide] | 0.202 |
| CC1(C)CCC(CNC(=O)c2oc3c(c2C(F)(F)F)-c2nn(C[C@H]4COCCO4)cc2CC3)O1 (mixture of isomers) [Example 223, N-{[(2±)-5,5-dimethyloxolan-2-yl]methyl}-2-{[(2S)-1,4-dioxan-2-yl]methyl}-8-(trifluoromethyl)-4,5-dihydro-2H-furo[2,3-g]indazole-7-carboxamide] | 0.023 |

system: rat DHT-PCOS model; experiment: In vivo assay 1: DHT driven rat PCOS model; design: species or system Han-Wistar rats; details: DHT driven rat PCOS model; 26 days of drug administration
Method: In Vivo Assay 1: GPR84 Ligand and Antagonist Characterization in PCOS Model
The efficacy of Example 3-2 in vivo on the treatment of POCS was measured in the DHT driven rat PCOS model. At 3 weeks of age, Han-Wistar rats were randomly divided into three experimental groups [control (n=10), DHT (n=10), and DHT plus Example 3-2 (n=10)] and implanted s.c. with 60-d continuous-DHT-release pellets (80 μg/d, Bayer AG, Germany). The dose of DHT was chosen to mimic the hyperandrogenic state in women with PCOS. Controls received identical pellets lacking the bioactive DHT molecule. Animal received a standard chow, only for the last week standard show was replaced by a high fat diet. Rats were weighted bi-weekly from 21 d of age. The study was concluded after 26 days of drug administration. […] Statistical analysis was performed with one-way analysis of variance, followed by Bonferroni's multiple comparison test against vehicle control groups using the GraphPad PRISM software, *p<0.05.

| SMILES | weight gain |
| --- | --- |
| Cc1c(C(=O)NC[C@@H]2CCCO2)oc2c1-c1nn(Cc3ccccn3)cc1CC2 [Example 3-2, 8-methyl-2-(pyridin-2-ylmethyl)-N-[(2S)-tetrahydrofuran-2-ylmethyl]-4,5-dihydro-2H-furo[2,3-g]indazole-7-carboxamide] | gained less weight compared to the untreated control |

same assay, conditions: rat DHT-PCOS model; p.o. 60 mg/kg morning dose + s.c. 60 mg/kg evening dose; 26 days of drug administration; DHT-Vehicle group 111%

| SMILES | Relative weight vs. Vehicle control |
| --- | --- |
| Cc1c(C(=O)NC[C@@H]2CCCO2)oc2c1-c1nn(Cc3ccccn3)cc1CC2 [Example 3-2, 8-methyl-2-(pyridin-2-ylmethyl)-N-[(2S)-tetrahydrofuran-2-ylmethyl]-4,5-dihydro-2H-furo[2,3-g]indazole-7-carboxamide] | 103% * (significant vs. |

system: mouse CFA model of inflammation; experiment: In vivo assay 2: CFA pain model, dynamic weight-bearing (DWB); details: 3x 20 mg p.o., DWB 24 h after CFA, vehicle 43 +/- 20, not significant vs. vehicle group
Method: In Vivo Assay 2: Effects of Example 3-2 in the CFA Pain Model
The efficacy of Example 3-2 in vivo on inflammatory pain was measured in inflamed paws after administration of complete Freund's adjuvant (CFA) (24 h) in the dynamic weight-bearing (DWB) model. The effects of repeated preventive treatment with Example 3-2 on pain following repeated oral administration (3×) in the mouse CFA model of inflammation were investigated using a preventive setting. The GPR84 antagonist Example 3-2 (20 or 60 mg/kg, 3× doses) was administered 2 h before injection of CFA and 6-8 h later at day 0. At 24 h after CFA application, the third dose of Example 3-2 was given 2 h before DWB testing. Statistical analysis was performed with one-way analysis of variance, followed by Bonferroni's multiple comparison test against vehicle control groups using the GraphPad PRISM software, *p<0.05.

| SMILES | Weight distribution (% weight on injected paw) mean +/- SD |
| --- | --- |
| Cc1c(C(=O)NC[C@@H]2CCCO2)oc2c1-c1nn(Cc3ccccn3)cc1CC2 [Example 3-2, 8-methyl-2-(pyridin-2-ylmethyl)-N-[(2S)-tetrahydrofuran-2-ylmethyl]-4,5-dihydro-2H-furo[2,3-g]indazole-7-carboxamide] | 60 +/− 21 (not significant vs. vehicle group) % |

same assay, conditions: 3x 60 mg p.o., DWB 24 h after CFA, vehicle 43 +/- 20, significant vs. vehicle group

| SMILES | Weight distribution (% weight on injected paw) mean +/- SD |
| --- | --- |
| Cc1c(C(=O)NC[C@@H]2CCCO2)oc2c1-c1nn(Cc3ccccn3)cc1CC2 [Example 3-2, 8-methyl-2-(pyridin-2-ylmethyl)-N-[(2S)-tetrahydrofuran-2-ylmethyl]-4,5-dihydro-2H-furo[2,3-g]indazole-7-carboxamide] | 83 +/− 18 (significant vs. vehicle group) % |
